Source: the NIST ThermoML archive (doi:10.1016/j.fluid.2012.10.015)
± gives the expanded uncertainty stated by the source.

Legend:
[1] = Liquid; for mass density: 101.33 kPa, Vibrating tube method; for vapor or sublimation pressure: Closed cell (Static) method
[2] = refractive index (Na D-line) (dimensionless); settings: 298.15 K; 101.33 kPa; Liquid; Standard Abbe refractometry

CCCCCl [1-chlorobutane]
mass density ([1]; 298.15 K): 881.172 ± 2.2 kg/m3 | vapor or sublimation pressure ([1]; 298.15 K): 13.72 ± 0.15 kPa | vapor or sublimation pressure ([1]; 308.15 K): 20.66 ± 0.19 kPa | vapor or sublimation pressure ([1]; 318.15 K): 31.46 ± 0.23 kPa | refractive index [2]: 1.39953 ± 0.00068

CCCCCCl [1-chloropentane]
mass density ([1]; 298.15 K): 877.089 ± 2.2 kg/m3 | vapor or sublimation pressure ([1]; 298.15 K): 4.24 ± 0.07 kPa | vapor or sublimation pressure ([1]; 308.15 K): 7.09 ± 0.08 kPa | vapor or sublimation pressure ([1]; 318.15 K): 10.91 ± 0.09 kPa | refractive index [2]: 1.41015 ± 0.00068

CC[N+](=O)[O-] [nitroethane]
mass density ([1]; 298.15 K): 1044.21 ± 2.3 kg/m3 | vapor or sublimation pressure ([1]; 298.15 K): 2.95 ± 0.05 kPa | vapor or sublimation pressure ([1]; 308.15 K): 4.69 ± 0.06 kPa | vapor or sublimation pressure ([1]; 318.15 K): 7.24 ± 0.07 kPa | refractive index [2]: 1.38951 ± 0.00071

C[N+](=O)[O-] [nitromethane]
mass density ([1]; 298.15 K): 1130.87 ± 2.3 kg/m3 | vapor or sublimation pressure ([1]; 298.15 K): 4.83 ± 0.07 kPa | vapor or sublimation pressure ([1]; 308.15 K): 7.5 ± 0.09 kPa | vapor or sublimation pressure ([1]; 318.15 K): 12.57 ± 0.11 kPa | refractive index [2]: 1.37956 ± 0.00072
